Results: the supplement of paper PMC8149375

Assays:
Conditions in all cases: treatment: drug alone; 5 days
[1] = test system: A498; experiment: AUC of dose-response viability curve, drug alone (arbitrary (AUC of normalised viability)); higher = less growth inhibition
Method: (§1)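 Primary HTS: 8 RCC cell lines treated with 8 doses (up to 10 uM) of each library drug alone for 5 days; viability read by CellTiter-Glo and normalised to DMSO. GI50 was fitted with XLfit (4-parameter), AUC is the area under the dose-response curve, and minimum viability is the lowest fraction of DMSO viability across doses.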

[2] = test system: ACHN; experiment: as above
Method: as §1

[3] = test system: CAKI-1; experiment: as above
Method: as §1

[4] = test system: TK-10; experiment: as above
Method: as §1

[5] = test system: 786-O; experiment: as above
Method: as §1

[6] = test system: 769-P; experiment: as above
Method: as §1

[7] = test system: SN12C; experiment: as above
Method: as §1

[8] = test system: UO-31; experiment: as above
Method: as §1

[9] = test system: A498; experiment: GI50, drug alone; higher = less potent
Method: as §1

[10] = test system: ACHN; experiment: GI50, drug alone; higher = less potent
Method: as §1

[11] = test system: CAKI-1; experiment: GI50, drug alone; higher = less potent
Method: as §1

[12] = test system: TK-10; experiment: GI50, drug alone; higher = less potent
Method: as §1

[13] = test system: 786-O; experiment: GI50, drug alone; higher = less potent
Method: as §1

[14] = test system: 769-P; experiment: GI50, drug alone; higher = less potent
Method: as §1

[15] = test system: SN12C; experiment: GI50, drug alone; higher = less potent
Method: as §1

[16] = test system: UO-31; experiment: GI50, drug alone; higher = less potent
Method: as §1

[17] = test system: A498; experiment: minimum viability across doses, drug alone, relative to DMSO (fraction); higher = less growth inhibition
Method: as §1

[18] = test system: ACHN; experiment: as above
Method: as §1

[19] = test system: CAKI-1; experiment: as above
Method: as §1

[20] = test system: TK-10; experiment: as above
Method: as §1

[21] = test system: 786-O; experiment: as above
Method: as §1

[22] = test system: 769-P; experiment: as above
Method: as §1

[23] = test system: SN12C; experiment: as above
Method: as §1

[24] = test system: UO-31; experiment: as above
Method: as §1

Row | Structure (SMILES) | GI50, drug alone [10] [µM] | GI50, drug alone [13] [µM] | AUC of dose-response viability curve [1] | AUC of dose-response viability curve [2] | AUC of dose-response viability curve [3] | AUC of dose-response viability curve [4] | AUC of dose-response viability curve [5] | AUC of dose-response viability curve [6] | AUC of dose-response viability curve [7] | AUC of dose-response viability curve [8] | GI50, drug alone [9] [µM] | GI50, drug alone [11] [µM] | GI50, drug alone [12] [µM] | GI50, drug alone [14] [µM] | GI50, drug alone [15] [µM] | GI50, drug alone [16] [µM] | minimum viability across doses [17] | minimum viability across doses [18] | minimum viability across doses [19] | minimum viability across doses [20] | minimum viability across doses [21] | minimum viability across doses [22] | minimum viability across doses [23] | minimum viability across doses [24]
1 | CCCCOc1c(C(=O)c2c(F)cc(C)cc2F)cnc2[nH]ncc12 | 0.267 | 0.0969 | 3.32 | 1.93 | 3.12 | 2.35 | 1.46 | 2.95 | 2.98 | 3.45 | > 10 | > 10 | 2.45 | > 10 | > 10 | 0.984 | 0.575 | 0.198 | 0.745 | 0.47 | 0.0155 | 0.562 | 0.564 | 0.00742
2 | CCOc1ccn(-c2ccc(F)cc2)c(=O)c1C(=O)Nc1ccc(Oc2ccnc(N)c2Cl)c(F)c1 | 8.82 | > 10 | 3.52 | 3.06 | 2.99 | 2.99 | 2.3 | 3.17 | 3.14 | 4.18 | > 10 | > 10 | > 10 | > 10 | > 10 | > 10 | 0.87 | 0.443 | 0.47 | 0.665 | 0.503 | 0.817 | 0.75 | 0.722
3 | Cc1c(NC(=O)OC[C@@H]2COCCN2)cn2ncnc(Nc3ccc4c(cnn4Cc4cccc(F)c4)c3)c12.Cl | 4.1 | > 10 | 3.52 | 2.75 | 3.17 | 2.53 | 3.22 | 2.92 | 3.22 | 4.06 | > 10 | > 10 | 1.94 | 5.19 | > 10 | > 10 | 0.861 | 0.419 | 0.573 | 0.234 | 0.592 | 0.368 | 0.677 | 0.929
4 | O=C1NC(=O)/C(=C/c2ccc3c(c2)OC(F)(F)O3)S1 | > 10 | > 10 | 3.81 | 3.46 | 3.54 | 3.24 | 2.35 | 3.5 | 3.07 | 4.4 | > 10 | > 10 | > 10 | > 10 | > 10 | > 10 | 0.83 | 0.93 | 0.98 | 0.858 | 0.474 | 0.947 | 0.775 | 0.92

More lines, main results first:

Row | GI50, drug alone [10] [µM] | GI50, drug alone [13] [µM] | Structure (SMILES) | AUC of dose-response viability curve [1] | AUC of dose-response viability curve [2] | AUC of dose-response viability curve [3] | AUC of dose-response viability curve [4] | AUC of dose-response viability curve [5] | AUC of dose-response viability curve [6] | AUC of dose-response viability curve [7] | AUC of dose-response viability curve [8] | GI50, drug alone [9] [µM] | GI50, drug alone [11] [µM] | GI50, drug alone [12] [µM] | GI50, drug alone [14] [µM] | GI50, drug alone [15] [µM] | GI50, drug alone [16] [µM] | minimum viability across doses [17] | minimum viability across doses [18] | minimum viability across doses [19] | minimum viability across doses [20] | minimum viability across doses [21] | minimum viability across doses [22] | minimum viability across doses [23] | minimum viability across doses [24]
5 | > 10 | > 10 | O=C1NC(=O)/C(=C/c2ccc(-c3ccc(F)cc3O)o2)S1 | 4.49 | 3.49 | 3.51 | 3.25 | 2.68 | 3.41 | 3.48 | 4.02 | > 10 | > 10 | > 10 | > 10 | > 10 | 4.73 | 1.21 | 0.872 | 0.955 | 0.853 | 0.694 | 0.905 | 0.917 | 0.244
6 | > 10 | > 10 | N#Cc1c(O)c2c(-c3ccc(-c4ccccc4O)cc3)csc2[nH]c1=O | 3.53 | 3.45 | 3.65 | 3.6 | 3.47 | 3.7 | 3.39 | 4.14 | > 10 | > 10 | > 10 | > 10 | > 10 | > 10 | 0.9 | 0.904 | 0.977 | 0.929 | 0.823 | 0.963 | 0.868 | 0.948
7 | > 10 | > 10 | O=C1NC(=O)/C(=C/c2ccc3nccnc3c2)S1 | 3.39 | 3.28 | 3.43 | 3.3 | 3.04 | 3.39 | 3.19 | 4.01 | > 10 | > 10 | > 10 | > 10 | > 10 | > 10 | 0.869 | 0.837 | 0.648 | 0.802 | 0.651 | 0.891 | 0.805 | 0.902
8 | > 10 | > 10 | Cc1cc2c(F)c(Oc3ncnn4cc(OC[C@@H](C)O)c(C)c34)ccc2[nH]1 | 4.21 | 3.04 | 3.4 | 3.23 | 3.09 | 3.39 | 3.28 | 4.46 | > 10 | 8.98 | > 10 | > 10 | > 10 | 9.55 | 1.09 | 0.628 | 0.427 | 0.733 | 0.668 | 0.901 | 0.909 | 0.457
9 | 8.45 | 8.62 | Cc1cc2c(F)c(Oc3ncnn4cc(OC[C@@H](C)OC(=O)[C@H](C)N)c(C)c34)ccc2[nH]1 | 3.68 | 2.61 | 3.29 | 3.26 | 2.99 | 3.33 | 3.35 | 3.77 | > 10 | > 10 | > 10 | > 10 | > 10 | 9.72 | 0.898 | 0.417 | 0.605 | 0.637 | 0.358 | 0.818 | 0.75 | 0.458
10 | 1.88 | > 10 | C[C@@H]1COC(Nc2ccc3ncnc(Nc4ccc(OCc5nccs5)c(Cl)c4)c3c2)=N1 | 4.91 | 2.8 | 3.13 | 2.46 | 2.6 | 2.72 | 3.25 | 4.74 | > 10 | 9.75 | 2.21 | 4.05 | > 10 | > 10 | 1.1 | 0.433 | 0.478 | 0.369 | 0.5 | 0.431 | 0.76 | 0.919
